According to patent publication US4248880A, “Treatment of gastric ulcers with naphthimidazole derivatives” (Hoffmann-La Roche Inc., priority 1977, dated 1981):

What was measured:
gastric acid secretion = test: inhibition of 4-methylhistamine-stimulated gastric acid secretion in the conscious Heidenhain pouch dog; assay type: in vivo; settings: Canis lupus familiaris, oral, 4-methylhistamine dihydrochloride infusion i.v., read-out: effective therapeutic dosage (per os amount causing 60-80% inhibition of acid secretion produced by 4-methylhistamine)
Excerpt: A part of the stomach fundus of dogs is separated from the remaining stomach in the form of a pouch according to the Heidenhain technique described by Rudick et al in J. Surgical Research, vol. 7, pp 383-398 (1967). The pouch is fitted with a steel canula conducted externally through the abdominal wall and the operation is allowed to heal. Utilizing a conscious dog prepared as above, gastric secretion is stimulated by an infusion of 4-methylhistaminedihydrochloride (40 μ/kg per hr., i.v.) which selectively stimulates histamine H2 receptors. When volumes of fifteen minute samples of gastric secretion and pH levels appear constant, the test substance is administered orally and samples again taken. […] In the context of this procedure, an effective therapeutic dosage may be defined as the amount of test substance administered per os which causes an inhibition of from 60-80% of the acid secretion produced by the administration of 4-methylhistamine.

[1] = tested on: stress-induced gastric ulcers; test: inhibition of the formation of stress-induced gastric ulcers in rats (water bath); assay type: in vivo; settings: Rattus norvegicus, po, 6 h; female rats 140 to 160 g; per os; water bath 22.5° C. for six hours; 10 rats per dosage; Probit method; read-out: ED50 (effective dosage at which 50% of the rats are protected against stress-induced ulcers)
Description: After six hours in the water, the animals were sacrificed and the incidence of ulcers noted. The ED50, that is, the dosage at which 50% of the 10 rats utilized per dosage are protected against stress-induced ulcers by the test compound was then determined according to the Probit method.

LD50 in the mouse = settings: in vivo, po, per os

Compound	ED (60-80) (gastric acid secretion)	ED50 [1]	LD50 (LD50 in the mouse)
Cc1ccc(CSc2nc3cc4ccccc4cc3[nH]2)nc1 [2-/[(5-methyl-2-pyridyl)-methyl]thio/-1H-naphth[2,3-d]imidazole]	~3 mg/kg	31 mg/kg	8000 mg/kg
c1ccc(CSc2nc3cc4ccccc4cc3[nH]2)nc1 [2-[(2-pyridylmethyl)thio]-1H-naphth[2,3-d]imidazole]	~3 mg/kg	12 mg/kg	> 5000 mg/kg
